Assay results taken from patent US5863917A, “Quinoxaline derivatives useful in therapy” (Pfizer, Inc., priority 1996, dated 1999).

target: T1, glycine site of the NMDA receptor (Rattus norvegicus, UniProt P35439); assay: Binding affinity for the glycine site of the NMDA receptor (test (a)); settings: displacement of a selective glycine site radioligand ([3H]-L-689,560) from rat brain membranes, tris-acetate buffer pH 7.4, 90 minutes
T1 construct: rat brain membranes; from tissue; host or cells: rat brain membranes
Experimental: (a) Binding affinity for the glycine site of the NMDA receptor
This may be measured by testing a compound's ability to displace a selective glycine site radioligand from rat brain membranes as described in Brit J Pharm (1991), 104, 74. In a variation of this method, thoroughly washed membrane protein is incubated with [^3 H]-L-689,560 for 90 minutes using tris-acetate buffer (pH 7.4). Displacement of the radioligand, using a range of test compound concentrations, is used to derive IC50 (50% inhibitory concentration) values.

| SMILES | IC50 [nM] |
| --- | --- |
| Cc1cc2[nH]c(=O)c(=O)[nH]c2c(N(CC(=O)O)S(C)(=O)=O)c1Cl [5 [the (-)-isomer]] | < 100 |
| Cn1cnc(S(=O)(=O)NCCN(c2c(Cl)c(Cl)cc3[nH]c(=O)c(=O)[nH]c23)S(C)(=O)=O)c1 [Example 2, N-(1,4-Dihydro-6,7-dichloro-2,3-dioxoquinoxalin-5-yl)-N-(2-(N'-4-(1H-1-methylimidazolyl)sulphonyl)aminoethyl)methanesulphonamide] | < 100 |
| Cc1c(Cl)cc2[nH]c(=O)c(=O)[nH]c2c1N(CC(=O)O)S(C)(=O)=O [Example 3, N-(Carboxymethyl)-N-(1,4-dihydro-7-chloro-6-methyl-2,3-dioxoquinoxalin-5-yl)methanesulphonamide] | < 100 |
| CCOC(=O)CN(c1c(C)c(C)cc2[nH]c(=O)c(=O)[nH]c12)S(C)(=O)=O [Example 11] | < 100 |
| CCCOC(=O)CN(c1c(C)c(C)cc2[nH]c(=O)c(=O)[nH]c12)S(C)(=O)=O [Example 12] | < 100 |

The next lines start with the values.

| IC50 [nM] | SMILES |
| --- | --- |
| < 100 | CS(=O)(=O)NCCN(c1c(Cl)c(Cl)cc2[nH]c(=O)c(=O)[nH]c12)S(C)(=O)=O [Example 1, N-(1,4-Dihydro-6,7-dichloro-2,3-dioxoquinoxalin-5-yl)-N-(2-(N'-methanesulphonyl)-aminoethyl)methanesulphonamide] |
| < 100 | Cc1c(Cl)cc2[nH]c(=O)c(=O)[nH]c2c1N(CCNS(=O)(=O)C(F)(F)F)S(C)(=O)=O [Example 4] |
| < 100 | Cc1cc2[nH]c(=O)c(=O)[nH]c2c(N(CC(=O)O)S(C)(=O)=O)c1C [Example 7, N-(Carboxymethyl)-N-(1,4dihydro-6,7-dimethyl-2,3-dioxoquinoxalin-5-yl)methanesulphonamide] |
| < 100 | COC(=O)CN(c1c(C)c(C)cc2[nH]c(=O)c(=O)[nH]c12)S(C)(=O)=O [Example 10] |
